Results published in ChEMBL document CHEMBL1201862, “PubChem BioAssay data set” (2004).
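Values below derive from 48-hour exposures of cells grown in 96-well plates, with endpoints linearly interpolated between the two concentrations bracketing the appropriate inhibition level. GI50 = concentration required for 50% inhibition of growth.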 The source made the active and inactive calls. No stated cut-off is given here; in the data, active = GI50 up to about 1.1 µM and inactive = higher.

How the values were obtained:
Test in all cases: NCI tumour cell line growth inhibition, 48 h
K562 = tested on: K562
OVCAR-4 = tested on: OVCAR-4
SF-295 = tested on: SF-295
786-0 = tested on: 786-0
KM12 = tested on: KM12
DU-145 = tested on: DU-145
A549 = tested on: A549
MOLT-4 = tested on: MOLT-4
UACC-62 = tested on: UACC-62
RXF 393 = tested on: RXF 393
SF-539 = tested on: SF-539
SK-MEL-2 = tested on: SK-MEL-2
NCI-H522 = tested on: NCI-H522
Hs-578T = tested on: Hs-578T
NCI-H460 = tested on: NCI-H460
HOP-92 = tested on: HOP-92
MDA-MB-231 = tested on: MDA-MB-231
MDA-MB-435 = tested on: MDA-MB-435
NCI-H23 = tested on: NCI-H23
U-251 = tested on: U-251
ACHN = tested on: ACHN
SF-268 = tested on: SF-268
SNB-19 = tested on: SNB-19
SK-OV-3 = tested on: SK-OV-3
UACC-257 = tested on: UACC-257
SR = tested on: SR
OVCAR-3 = tested on: OVCAR-3
HCT-116 = tested on: HCT-116
BT-549 = tested on: BT-549
SNB-75 = tested on: SNB-75
T47D = tested on: T47D
OVCAR-5 = tested on: OVCAR-5
OVCAR-8 = tested on: OVCAR-8
Malme-3M = tested on: Malme-3M
UO-31 = tested on: UO-31
SN12C = tested on: SN12C
TK-10 = tested on: TK-10
HCT-15 = tested on: HCT-15
IGROV-1 = tested on: IGROV-1
EKVX = tested on: EKVX
CCRF-CEM = tested on: CCRF-CEM
HT-29 = tested on: HT-29
HCC 2998 = tested on: HCC 2998
NCI/ADR-RES = tested on: NCI/ADR-RES
M14 = tested on: M14
NCI-H226 = tested on: NCI-H226
HL-60 = tested on: HL-60
SK-MEL-5 = tested on: SK-MEL-5
SK-MEL-28 = tested on: SK-MEL-28
HOP-62 = tested on: HOP-62
CAKI-1 = tested on: CAKI-1
LOX IMVI = tested on: LOX IMVI
A498 = tested on: A498
PC-3 = tested on: PC-3
SW-620 = tested on: SW-620
MCF7 = tested on: MCF7
MDA-N = tested on: MDA-N
COLO 205 = tested on: COLO 205
RPMI-8226 = tested on: RPMI-8226

## CCOC(=O)c1cc(-c2ccc([N+](=O)[O-])cc2)c([N+](=O)[O-])[nH]1
K562
  GI50: 3.48 µM (inactive)
OVCAR-4
  GI50: 4.23 µM (inactive)
SF-295
  GI50: 2.1 µM (inactive)
786-0
  GI50: 3.52 µM (inactive)
KM12
  GI50: 7.19 µM (inactive)
DU-145
  GI50: 2.96 µM (inactive)
A549
  GI50: 2.88 µM (inactive)
MOLT-4
  GI50: 3.77 µM (inactive)
UACC-62
  GI50: 3.03 µM (inactive)
RXF 393
  GI50: 2.18 µM (inactive)
SF-539
  GI50: > 10 µM (inactive)
SK-MEL-2
  GI50: 2.72 µM (inactive)
NCI-H522
  GI50: 3.33 µM (inactive)
Hs-578T
  GI50: 3.34 µM (inactive)
NCI-H460
  GI50: 2.26 µM (inactive)
HOP-92
  GI50: 1.22 µM (inactive)
MDA-MB-231
  GI50: 0.37 µM (active)
MDA-MB-435
  GI50: 2.75 µM (inactive)
NCI-H23
  GI50: 2.84 µM (inactive)
U-251
  GI50: 3.46 µM (inactive)
ACHN
  GI50: 3.28 µM (inactive)
SF-268
  GI50: 4.53 µM (inactive)
SNB-19
  GI50: 2.91 µM (inactive)
SK-OV-3
  GI50: > 10 µM (inactive)
UACC-257
  GI50: 1.6 µM (inactive)
SR
  GI50: 1.76 µM (inactive)
OVCAR-3
  GI50: 2.7 µM (inactive)
HCT-116
  GI50: 4.85 µM (inactive)
BT-549
  GI50: 3.4 µM (inactive)
SNB-75
  GI50: > 10 µM (inactive)
T47D
  GI50: 2.33 µM (inactive)
OVCAR-5
  GI50: 5.47 µM (inactive)
OVCAR-8
  GI50: 4.24 µM (inactive)
Malme-3M
  GI50: > 10 µM (inactive)
UO-31
  GI50: 2.42 µM (inactive)
SN12C
  GI50: > 10 µM (inactive)
TK-10
  GI50: 4.22 µM (inactive)
HCT-15
  GI50: 2.9 µM
IGROV-1
  GI50: 5.26 µM (inactive)
EKVX
  GI50: 2.51 µM (inactive)
CCRF-CEM
  GI50: 2.6 µM (inactive)
HT-29
  GI50: 2.69 µM (inactive)
HCC 2998
  GI50: 4.38 µM (inactive)
NCI/ADR-RES
  GI50: 3.1 µM (inactive)
M14
  GI50: > 10 µM (inactive)
NCI-H226
  GI50: 1.46 µM (inactive)

## CCOC(=O)C(=Cn1c(=S)[nH]c2ccc([N+](=O)[O-])cc21)C(=O)OCC
K562
  GI50: > 100 µM (inactive)
HL-60
  GI50: > 100 µM (inactive)
OVCAR-4
  GI50: > 100 µM (inactive)
SF-295
  GI50: > 100 µM (inactive)
786-0
  GI50: > 100 µM (inactive)
KM12
  GI50: > 100 µM (inactive)
SK-MEL-5
  GI50: > 100 µM (inactive)
DU-145
  GI50: > 100 µM (inactive)
SK-MEL-28
  GI50: > 100 µM (inactive)
A549
  GI50: > 100 µM (inactive)
MOLT-4
  GI50: > 100 µM (inactive)
UACC-62
  GI50: > 100 µM (inactive)
RXF 393
  GI50: > 100 µM (inactive)
SF-539
  GI50: > 100 µM (inactive)
HOP-62
  GI50: > 100 µM (inactive)
SK-MEL-2
  GI50: > 100 µM (inactive)
NCI-H522
  GI50: > 100 µM (inactive)
CAKI-1
  GI50: > 100 µM (inactive)
Hs-578T
  GI50: 90.4 µM (inactive)
NCI-H460
  GI50: > 100 µM (inactive)
HOP-92
  GI50: > 100 µM (inactive)
MDA-MB-231
  GI50: > 100 µM (inactive)
MDA-MB-435
  GI50: > 100 µM (inactive)
NCI-H23
  GI50: > 100 µM (inactive)
U-251
  GI50: > 100 µM (inactive)
LOX IMVI
  GI50: > 100 µM (inactive)
A498
  GI50: > 100 µM (inactive)
ACHN
  GI50: > 100 µM (inactive)
SF-268
  GI50: > 100 µM (inactive)
SNB-19
  GI50: > 100 µM (inactive)
SK-OV-3
  GI50: > 100 µM (inactive)
PC-3
  GI50: > 100 µM (inactive)
UACC-257
  GI50: > 100 µM (inactive)
SR
  GI50: > 100 µM (inactive)
OVCAR-3
  GI50: > 100 µM (inactive)
HCT-116
  GI50: > 100 µM (inactive)
SW-620
  GI50: > 100 µM (inactive)
SNB-75
  GI50: 47.9 µM (inactive)
T47D
  GI50: 59.6 µM (inactive)
OVCAR-5
  GI50: > 100 µM (inactive)
OVCAR-8
  GI50: > 100 µM (inactive)
MCF7
  GI50: > 100 µM (inactive)
Malme-3M
  GI50: > 100 µM (inactive)
UO-31
  GI50: 87.9 µM (inactive)
SN12C
  GI50: > 100 µM (inactive)
TK-10
  GI50: > 100 µM (inactive)
IGROV-1
  GI50: > 100 µM (inactive)
EKVX
  GI50: > 100 µM (inactive)
CCRF-CEM
  GI50: > 100 µM (inactive)
HT-29
  GI50: > 100 µM (inactive)
MDA-N
  GI50: > 100 µM (inactive)
HCC 2998
  GI50: > 100 µM (inactive)
COLO 205
  GI50: > 100 µM (inactive)
NCI/ADR-RES
  GI50: > 100 µM (inactive)
M14
  GI50: > 100 µM (inactive)
NCI-H226
  GI50: 39.8 µM (inactive)
RPMI-8226
  GI50: > 100 µM (inactive)

## COC1OC(C)C(NC(=O)OCC(Cl)(Cl)Cl)C2OC(C)(C)OC12 (centres undefined)
K562
  GI50: > 100 µM (inactive)
HL-60
  GI50: > 100 µM (inactive)
OVCAR-4
  GI50: > 100 µM (inactive)
SF-295
  GI50: > 100 µM (inactive)
786-0
  GI50: > 100 µM (inactive)
KM12
  GI50: > 100 µM (inactive)
SK-MEL-5
  GI50: > 100 µM (inactive)
DU-145
  GI50: > 100 µM (inactive)
SK-MEL-28
  GI50: > 100 µM (inactive)
A549
  GI50: > 100 µM (inactive)
MOLT-4
  GI50: > 100 µM (inactive)
UACC-62
  GI50: > 100 µM (inactive)
RXF 393
  GI50: > 100 µM (inactive)
SF-539
  GI50: > 100 µM (inactive)
HOP-62
  GI50: > 100 µM (inactive)
NCI-H522
  GI50: > 100 µM (inactive)
CAKI-1
  GI50: > 100 µM (inactive)
Hs-578T
  GI50: > 100 µM (inactive)
NCI-H460
  GI50: > 100 µM (inactive)
HOP-92
  GI50: > 100 µM (inactive)
MDA-MB-231
  GI50: > 100 µM (inactive)
MDA-MB-435
  GI50: > 100 µM (inactive)
NCI-H23
  GI50: > 100 µM (inactive)
U-251
  GI50: > 100 µM (inactive)
LOX IMVI
  GI50: > 10 µM (inactive)
A498
  GI50: > 100 µM (inactive)
ACHN
  GI50: > 100 µM (inactive)
SF-268
  GI50: > 100 µM (inactive)
SNB-19
  GI50: > 100 µM (inactive)
SK-OV-3
  GI50: > 100 µM (inactive)
PC-3
  GI50: > 100 µM (inactive)
UACC-257
  GI50: > 100 µM (inactive)
SR
  GI50: > 100 µM (inactive)
OVCAR-3
  GI50: > 100 µM (inactive)
HCT-116
  GI50: > 100 µM (inactive)
BT-549
  GI50: > 100 µM (inactive)
SW-620
  GI50: > 100 µM (inactive)
T47D
  GI50: > 100 µM (inactive)
OVCAR-5
  GI50: > 100 µM (inactive)
OVCAR-8
  GI50: > 100 µM (inactive)
MCF7
  GI50: > 100 µM (inactive)
Malme-3M
  GI50: > 100 µM (inactive)
UO-31
  GI50: > 100 µM (inactive)
SN12C
  GI50: > 100 µM (inactive)
TK-10
  GI50: > 100 µM (inactive)
HCT-15
  GI50: > 100 µM
IGROV-1
  GI50: > 100 µM (inactive)
EKVX
  GI50: > 100 µM (inactive)
CCRF-CEM
  GI50: > 100 µM (inactive)
HT-29
  GI50: > 100 µM (inactive)
HCC 2998
  GI50: > 100 µM (inactive)
COLO 205
  GI50: > 100 µM (inactive)
NCI/ADR-RES
  GI50: > 100 µM (inactive)
M14
  GI50: > 100 µM (inactive)
NCI-H226
  GI50: > 100 µM (inactive)
RPMI-8226
  GI50: > 100 µM (inactive)
